Biological target: T1, GST-tagged ROR gamma ligand binding domain (LBD) (Homo sapiens, UniProt P51449)
T1 construct: purchased Invitrogen
T1 sequence (P51449 269-508 limits assumed): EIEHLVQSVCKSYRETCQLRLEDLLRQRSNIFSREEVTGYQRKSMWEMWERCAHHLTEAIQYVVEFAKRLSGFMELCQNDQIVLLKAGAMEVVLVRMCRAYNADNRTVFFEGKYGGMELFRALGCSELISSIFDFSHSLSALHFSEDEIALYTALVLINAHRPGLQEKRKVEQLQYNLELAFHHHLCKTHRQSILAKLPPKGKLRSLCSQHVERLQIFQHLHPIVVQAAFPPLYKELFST
Assay: TR-FRET assay for ROR gamma (LanthaScreen co-activator peptide recruitment)
Assay type: biochemical
Conditions: for IC50: class symbols, from dose response curve; for inhibition at 1 µM: compound 1 μM; for inhibition at 1 µM / inhibition at 10 µM: TR-FRET ratio 520/495, percent of control; for inhibition at 10 µM: compound 10 μM
Excerpt: The compounds described herein were screened for ROR gamma modulator activity using the TR-FRET assay by Lantha Screen as described in JBC 2011, 286, 26: 22707-10; and Drug Metabolism and Disposition 2009, 37, 10: 2069-78.
The assay is based on the principle that binding of the agonist to the ROR gamma causes a conformational change around helix 12 in the ligand binding domain, resulting in higher affinity for the co-activator peptide. ROR gamma being constitutively active, the Fluorescein-D22 co-activator peptide used in the assay is recruited in the absence of a ligand. Binding of the co-activator peptide, causes an increase in the TR-FRET signal while binding of an antagonist decreases the recruitment of the co-activator peptide, causing a decrease in the TR-FRET signal compared to control with no compound. The assay was performed using a two-step procedure, pre-incubation step with the compound followed by the detection step on addition of the anti-GST tagged terbium (Tb) and fluorescein tagged fluorophores as the acceptor.
Test compounds or reference compounds such as T0901317 (Calbiochem) were dissolved in dimethylsulfoxide (DMSO) to prepare 10.0 mM stock solutions and diluted to the desired concentration. The final concentration of DMSO in the reaction was 4% (v/v). The assay mixture was prepared by mixing 10 nM of the GST-tagged ROR gamma ligand binding domain (LBD) in the assay buffer containing 25 mM HEPES (pH 7.4), 100 mM NaCl, 5 mM DTT and 0.01% BSA with or without the desired concentration of the compound. The reaction was incubated at 22° C. for 1 hour. The pre-incubation step was terminated by addition of the detection mixture containing 300 nM Fluorescein-D22 co-activator peptide and 10 nM lantha screen Tb-anti GST antibody into the reaction mixture. After shaking for 5 minutes the reaction was further incubated for 1 hour at room temperature and read at 4° C. on an Infinite F500 reader as per the kit instructions (Invitrogen). The inhibition of test compound was calculated based on the TR-FRET ratio of 520/495. The activity was calculated as a percent of control reaction. IC50 values were calculated from dose response curve by nonlinear regression analysis using GraphPad Prism software.
Percentage inhibition at concentrations of 1.0 μM and 10.0 μM are given in the table along with IC50 (nM) details for selected examples.

| SMILES | IC50 | inhibition at 1 µM | inhibition at 10 µM |
| --- | --- | --- | --- |
| CCS(=O)(=O)c1ccc(CC(=O)Nc2ccc3c(c2)nc(C(C)(C)Oc2ccc(F)cc2F)n3CC(C)C)cc1 [Example 116, N-{2-[1-(2,4-Difluoro-phenoxy)-1-methyl-ethyl]-1-isobutyl-1H-benzoimidazol-5-yl}-2-(4-ethanesulfonyl-phenyl)-acetamide] | > 100 nM | 79.1% | 84.5% |
| CCn1c(C(C)(C)Oc2cc(F)c(F)cc2F)nc2cc(NC(=O)Cc3ccc(S(=O)(=O)CC)cc3)ccc21 [Example 92, 2-(4-Ethanesulfonyl-phenyl)-N-{1-ethyl-2-[1-methyl-1-(2,4,5-trifluoro-phenoxy)-ethyl]-1H-benzoimidazol-5-yl}-acetamide] | < 50 nM | 91.5% | 93.1% |
| CCn1c(C(C)(C)Oc2ccc(Cl)cc2)nc2cc(NC(=O)Cc3ccc(S(=O)(=O)CC)cc3)ccc21 [Example 93, N-{2-[1-(4-Chloro-phenoxy)-1-methyl-ethyl]-1-ethyl-1H-benzoimidazol-5-yl}-2-(4-ethanesulfonyl-phenyl)-acetamide] | < 50 nM | 83.4% | 87.4% |
| CCS(=O)(=O)c1ccc(CC(=O)Nc2ccc(OC(C)(C)c3ccc(C(F)(F)F)cc3)cc2)cc1 [Example 9, 2-[4-(Ethylsulfonyl)phenyl]-N-[4-({2-[4-(trifluoromethyl)phenyl]propan-2-yl}oxy)phenyl]acetamide] | < 50 nM | 86.5% | 89% |
| CCS(=O)(=O)c1ccc(CC(=O)Nc2ccc(OC(C)(C)c3noc(-c4ccc(Cl)cc4)n3)cc2)cc1 [Example 28, N-(4-{1-[5-(4-Chloro-phenyl)-[1,2,4]oxadiazol-3-yl]-1-methyl-ethoxy}-phenyl)-2-(4-ethanesulfonyl-phenyl)-acetamide] | – | 61.1% | 84.4% |
| CCS(=O)(=O)c1ccc(CC(=O)Nc2ccc(OC(C)(C)c3ccc(Cl)cc3F)nc2)cc1 [Example 56, N-{6-[1-(4-Chloro-2-fluoro-phenyl)-1-methyl-ethoxy]-pyridin-3-yl}-2-(4-ethanesulfonyl-phenyl)-acetamide] | < 50 nM | 83.1% | 91.3% |
| CCN(C(=O)C(C)(C)Oc1ccc(NC(=O)Cc2ccc(S(=O)(=O)CC)cc2)cc1)c1ccc(Cl)cc1 [Example 127, N-(4-Chlorophenyl)-2-{4-[2-(4-ethanesulfonylphenyl)acetylamino]-phenoxy}-N-ethyl-2-methylpropionamide] | – | 68% | 75.8% |
| CCS(=O)(=O)c1ccc(CC(=O)Nc2ccc3c(c2)nc(C(C)(C)Oc2ccc(Cl)cc2F)n3C)cc1 [Example 83, N-{2-[1-(4-Chloro-2-fluoro-phenoxy)-1-methyl-ethyl]-1-methyl-1H-benzoimidazol-5-yl}-2-(4-ethanesulfonyl-phenyl)-acetamide] | 50 to 100 nM | 83.3% | 92% |
| CCS(=O)(=O)c1ccc(CC(=O)Nc2ccc(OC3(c4ccc(Cl)c(F)c4)CC3)c(F)c2)cc1 [Example 100, N-{4-[1-(4-Chloro-3-fluoro-phenyl)-cyclopropoxy]-3-fluoro-phenyl}-2-(4-ethanesulfonyl-phenyl)-acetamide] | < 50 nM | 79.4% | 87.2% |
| CCn1c(C(C)(C)Oc2ccc(F)c(F)c2F)nc2cc(NC(=O)Cc3ccc(S(=O)(=O)CC)cc3)ccc21 [Example 91, 2-(4-Ethanesulfonyl-phenyl)-N-{1-ethyl-2-[1-methyl-1-(2,3,4-trifluoro-phenoxy)-ethyl]-1H-benzoimidazol-5-yl}-acetamide] | < 50 nM | 90% | 90.6% |
| CCn1c(C(C)(C)Oc2ccc(Cl)cc2F)nc2cc(NC(=O)Cc3ccc(S(=O)(=O)CC)cc3)ccc21 [Example 86, N-{2-[2-(4-Chloro-2-fluorophenoxy)propan-2-yl]-1-ethyl-1H-benzimidazol-5-yl}-2-[4-(ethylsulfonyl)phenyl]acetamide] | < 50 nM | 92.8% | 93.8% |
| CCS(=O)(=O)c1ccc(CC(=O)Nc2ccc(OC3(c4ccc(C(F)(F)F)c(F)c4)COC3)cc2)cc1 [Example 48, (4-Ethanesulfonyl-phenyl)-N-{4-[3-(3-fluoro-4-trifluoromethyl-phenyl)-oxetan-3-yloxy]-phenyl}-acetamide] | – | 60.3% | 77.4% |
| CCS(=O)(=O)c1ccc(CC(=O)Nc2ccc(OC3(c4ccc(Cl)cc4)CCC3)cc2)cc1 [Example 31, N-{4-[1-(4-Chloro-phenyl)-cyclobutoxy]-phenyl}-2-(4-ethanesulfonyl-phenyl)-acetamide] | 50 to 100 nM | 81.9% | 89.1% |
| CCS(=O)(=O)c1ccc(CC(=O)Nc2ccc(OC3(c4ccc(Cl)c(F)c4)CCCCC3)c(F)c2)cc1 [Example 122, N-{4-[1-(4-Chloro-3-fluorophenyl)-cyclohexyloxy]-3-fluorophenyl}-2-(4-ethanesulfonyl-phenyl)-acetamide] | < 50 nM | 77.3% | 81.2% |
| CCS(=O)(=O)c1ccc(CC(=O)Nc2ccc(OC3(c4ccc(Cl)c(F)c4)CCOCC3)c(F)c2)cc1 [Example 103, N-{4-[4-(4-Chloro-3-fluoro-phenyl)-tetrahydro-pyran-4-yloxy]-3-fluoro-phenyl}-2-(4-ethanesulfonyl-phenyl)-acetamide] | < 50 nM | 73.6% | 80.2% |
| CCS(=O)(=O)c1ccc(CC(=O)Nc2ccc(OC3(c4ccc(Cl)cc4Cl)CCOCC3)cc2)cc1 [Example 40, N-{4-[4-(2,4-Dichloro-phenyl)-tetrahydro-pyran-4-yloxy]-phenyl}-2-(4-ethanesulfonyl-phenyl)-acetamide] | < 50 nM | 77.4% | 81.9% |
| CCS(=O)(=O)c1ccc(CC(=O)Nc2ccc(OC3(c4ccc(Cl)cc4Cl)CCOCC3)c(F)c2)cc1 [Example 136, N-(4-((4-(2,4-Dichlorophenyl)tetrahydro-2H-pyran-4-yl)oxy)-3-fluorophenyl)-2-(4-(ethylsulfonyl)phenyl)acetamide] | < 50 nM | 71.6% | 79.3% |
| CCS(=O)(=O)c1ccc(CC(=O)Nc2ccc(C#CC(C)(C)Oc3c(F)cc(Cl)cc3F)cc2)cc1 [Example 75, N-{4-[3-(4-Chloro-2,6-difluoro-phenoxy)-3-methyl-but-1-yn-1-yl]-phenyl}-2-(4-ethanesulfonyl-phenyl)-acetamide] | < 50 nM | 83.2% | 84% |
| CCn1c(C(C)(C)Oc2c(F)cc(F)cc2F)nc2cc(NC(=O)Cc3ccc(S(=O)(=O)CC)cc3)ccc21 [Example 90, 2-(4-Ethanesulfonyl-phenyl)-N-{1-ethyl-2-[1-methyl-1-(2,4,6-trifluoro-phenoxy)-ethyl]-1H-benzoimidazol-5-yl}-acetamide] | < 50 nM | 87.3% | 88.8% |
| CCS(=O)(=O)c1ccc(CC(=O)Nc2ccc(OC3(c4ccc(Cl)c(F)c4)CCN(C)CC3)cc2)cc1 [Example 44, N-{4-[4-(4-Chloro-3-fluoro-phenyl)-1-methyl-piperidin-4-yloxy]-phenyl}-2-(4-ethanesulfonyl-phenyl)-acetamide] | – | 44.6% | 70% |
| CCS(=O)(=O)c1ccc(CC(=O)Nc2ccc(OC(C)(C)c3nc4cc(F)ccc4n3C(C)C)cc2)cc1 [Example 20, 2-(4-Ethanesulfonyl-phenyl)-N-{4-[1-(5-fluoro-1-isopropyl-1H-benzoimidazol-2-yl)-1-methyl-ethoxy]-phenyl}-acetamide] | > 100 nM | 79.8% | 85.2% |
| CCS(=O)(=O)c1ccc(CC(=O)Nc2ccc(C#CC(C)(C)Oc3ccc(Cl)cc3F)cc2)cc1 [Example 65, N-{4-[3-(4-Chloro-2-fluoro-phenoxy)-3-methyl-but-1-yn-1-yl]-phenyl}-2-(4-ethanesulfonyl-phenyl)-acetamide] | < 50 nM | 83.9% | 88.2% |

From patent US9718817B2, “Aryl and heteroaryl ether compounds as ROR gamma modulators” (Glenmark Pharmaceuticals S.A., priority 2014, dated 2017)
